# According to patent US20040053847A1, “Diastereomeric peptitdes and pharmaceutical compositions comprising them” (priority 2000, published 2004):
# Square brackets hold non-standard residues; d marks the D form. Peptide text beside a SMILES is read from it.
# Experiments:
# human breast MCF-7 cells = experiment: Xenograft model of human breast MCF-7 cells in SCID mice; format: in vivo; conditions: mouse, in vivo
# Protocol: The in-vivo anticancer assay was conducted on SCID (Severe Combined Immune Deficiency) mice using the xenograft model of human breast MCF-7 cells. Groups of 6 SCID female mice weighing 18-20 g (6-week old), bred in an animal isolator (IVC racks under specific pathogen-free (SPF) conditions at 24±1° C., were used. Viable human breast carcinoma MCF-7 cells (ATCC HTB-22−1×10^7 cells in 0.2 ml of PBS) were injected subcutaneously (s.c.) into the dorsal side of SCID mice. 50 μg/mouse of estradiol benzoate was injected s.c. weekly as a supplement for 4 weeks. […] Mitomycin at a dose of 2 mg/kg was administered intraperitoneally (IP) twice a week for 5 doses. The tumor size, body weight and the signs of overt animal toxicity after each treatment were recorded and observed. At the end of the experiment, hematological analysis was carried out.
# [1] = tested on: HT-29 colon adenocarcinoma; format: cell-based, human; conditions: 24 h
# Protocol: (§1) Aliquots of 100 μl of tumor cell suspension (about 2.5-5×10^3/well) were placed in 96-well microtiter plates in an atmosphere of 5% CO2 at 37° C. […] At the end of incubation, 20 μl of AlamarBlue 75% reagent was added to each well for another 6-hour incubation before detection of cell viability by fluorescence intensity. Fluorescence intensity was measured using a Spectraflour Plus plate reader with excitation at 530 nm and emission at 590 nm. The assays were used to detect changes in cell proliferation based on the ability of viable cells to cause AlamarBlue to change from its oxidized (non-fluorescent, blue) to a reduced (fluorescent, red) form. With the results obtained from the AlamarBlue reaction, cell proliferation can be quantified and metabolic activity of viable cells can be examined.
# [2] = tested on: MCF-7 breast adenocarcinoma; format: cell-based, human; conditions: 24 h
# Protocol: as §1
# [3] = tested on: PC-3 prostate adenocarcinoma; format: cell-based, human; conditions: 24 h
# Protocol: as §1
# A549 lung carcinoma = format: cell-based, human; conditions: 24 h
# Protocol: as §1
# [4] = tested on: SK-MEL- (ATCC HTB-70) malignant melanoma; format: cell-based, human; conditions: 24 h
# Protocol: as §1
# [5] = tested on: B16 F10 mouse melanoma cell line; experiment: In vitro anticancer activity, Trypan blue cell viability, LC50; conditions: 50% cell mortality after 24 h incubation, medium without serum
# Protocol: The anticancer activity of the diastereomers 1, 2, 8, 9 and 10 was examined against B16 F10 mouse melanoma cell line. Melanoma cells were grown in RPMI-1640 medium supplemented with 10% fetal calf serum and antibiotics, at 37° C., in humidified atmosphere at 5% CO2 and 95% air. In addition, the cell-selectivity of the diastereomeric peptides was studied by examining their effect on NIH-3T3 normal fibroblasts cell line. NIH-3T3 mouse fibroblasts cells were grown in DMEM medium supplemented with 10% bovine calf serum and antibiotics under the same conditions as described above for B16 F10 mouse melanoma cells. Melanoma cells (2×10^5 cells ml^−1) or NIH-3T3 cells (2.5×10^5 cells ml^−1) were seeded in tissue culture plates (3.5 cm). After 48 h, cells were washed thrice with the corresponding medium. Then the cells were incubated at 37° C. in medium (without serum and antibiotics) in the presence of the tested diastereomeric peptides dissolved in PBS, at different concentrations. […] Following 24 h of incubation, the cells were harvested with trypsin (0.25%)-EDTA (0.05%) and centrifuiged for 10 min at 270×g. The precipitated cells were suspended in the corresponding medium and counted in a hemocytometer (Neubauer). Cell viability was determined by Trypan blue dye exclusion.
# [6] = tested on: Staphylococcus aureus ATCC 6538P
# Protocol: (§2) The antibacterial activity of the peptides was examined in sterile 96-well plates (Nunc F96 microtiter plates) in a final volume of 100 μl as follows: Aliquots (50 μl) of a suspension containing bacteria at concentration of 1×10^6 Colony-Forming Units (CFU)/ml in culture LB (Lauria broth) medium were added to 50 μl of water containing the peptide in serial 2-fold dilutions in water. Inhibition of growth was determined by measuring the absorbance at 600 nm with a Microplate autoreader E1309 (Bio-tek Instruments), after an incubation time of 18-20 h at 37° C. Antibacterial activities were expressed as the minimal inhibitory concentration (MIC), the concentration at which 100% inhibition of growth was observed after 18-20 h of incubation. […]
# (§3) The antibacterial activity of the resulting liposomal diastereomeric peptide preparations were examined as described in Example 2 above. The MICs of liposomal peptide 9 in various lipid compositions and peptide/lipid ratios (as described above), or of liposomes at lipid compositions equivalent to the loaded_liposomes (not shown) or peptide 9 alone, were determined using the following bacteria: Acinetobacter baumannii ATCC 19606, and Staphylococcus aureus ATCC 6538P.
# [7] = tested on: Acinetobacter baumannii ATCC 19606
# Protocol: as §2, §3
# [8] = Cell selectivity, Trypan blue cell viability, LC50; format: cell-based, mouse; conditions: mouse, NIH-3T3 fibroblasts; 50% cell mortality after 24 h incubation, medium without serum; read-out: Lethal Concentration (LC50), NIH-3T3 fibroblasts
# [9] = In vivo toxicity, single i.v. bolus injection in CD1 mice; design: species or system CD1 male mice
# Protocol: The in vivo toxicity of the liposomal peptide 9 preparation composed of the lipids PC/PG (9:1 w/w) at a 10:1 w/w lipid/peptide ratio was examined. Groups of 5 CD1 male mice weighing 24-27 g (5-week old), bred in an animal isolator (IVC racks) under specific pathogen-free (SPF) conditions at 24±1° C., were used. Twelve mg/kg liposomal peptide 9 or peptide 9 alone dissolved in PBS in a dosing volume of 10 ml/kg, were administered by single i.v. bolus injection via the mice tail vein. In parallel, control groups received i.v. injections of equivalent liposomes alone or PBS in a dosing volume of 10 ml/kg.
smiles,measurement,setting,value
"CC(C)C[C@H](NC(=O)[C@H](CCCNC(=N)N)NC(=O)[C@@H](CC(C)C)NC(=O)[C@H](CC(C)C)NC(=O)[C@@H](N)CCCCN)C(=O)N[C@@H](CC(C)C)C(=O)N[C@H](CCCCN)C(=O)N[C@H](CCCCN)C(=O)N[C@@H](CC(C)C)C(=O)N[C@H](CC(C)C)C(=O)N[C@@H](CCCNC(=N)N)C(=O)N[C@@H](CC(C)C)C(=O)N[C@H](CC(C)C)C(=O)N[C@@H](CC(C)C)C(=O)N[C@@H](CCCCN)C(N)=O [Peptide 9, [D]-L^3,10,13,K^7,8-K4R2L9] (H-KL[dL]RLL[dK][dK]L[dL]RL[dL]LK-NH2)",PLT,human breast MCF-7 cells,1.31e+06 µL⁻¹
same,RBC,human breast MCF-7 cells,11.18 ± 0.11 × 10^6/μl
same,Reduction of RBC,human breast MCF-7 cells,only a slight reduction in RBC
same,Reduction of WBC and platelets,human breast MCF-7 cells,did not cause a reduction in WBC and platelets
same,WBC,human breast MCF-7 cells,2220 µL⁻¹
same,IC50,[1],2.2 µM
same,IC50,[2],3.3 µM
same,IC50,[3],1.6 µM
same,IC50,A549 lung carcinoma,1.4 µM
same,IC50,[4],1.2 µM
same,"Lethal Concentration (LC50), B16-F10 melanoma",[5],2 µg/mL
same,"MIC of liposomal peptide 9, S. aureus",[6],12.5 µg/mL
same,"MIC of liposomal peptide 9, A. baumannii",[7],3.1 µg/mL
same,CC50 at 24 h,[8],30 µg/mL
same,Mortality,[9]; 12 mg/kg injected i.v.,80%
same,Incidence of mortality,[9]; 12 mg/kg single i.v. injection,4/5
